Test results taken from patent US12005142B2, “Sustained-release compositions comprising a therapeutic agent for treating depression or anxiety and uses thereof” (TAIWAN LIPOSOME CO., LTD., priority 2018, dated 2024).
Structures can show the parent of a compound that is named as a salt. Where two headings read alike, the source gives them in different places.

Experiments:
[1] = intravenous; of the eight patients enrolled; cited from earlier work
[2] = 3 intravenous infusions, 3-5 days interval; cited from earlier work
[3] = PK study of liposomal ketamine formulation and free ketamine after single subcutaneous injection
Description: Blood samples were collected at 15 min, 0.5, 1, 2, 4, 6, 8, 24 and 48 hours post-injection.

[4] = cited from earlier work
[5] = three infusions per week; eight of nine subjects; cited from earlier work
[6] = oral administration; cited from earlier work
[7] = free ketamine IV infusion 10 mg/kg/min over 5 min (50.0 mg/kg), Wistar rats; cited from earlier work
[8] = free ketamine, intraperitoneal injection in rat; cited from earlier work
[9] = cited from earlier work; remark: listed apart in the source
[10] = female, Sprague-Dawley, rat, plasma, sc, 5 mg/kg
[11] = free ketamine SC 5.0 mg/kg, rat plasma

Row | Structure (SMILES) | patients remitted to the nondepressed range (MADRS score 10) [1] | patients with a 50% or greater reduction in MADRS scores [1] | persistence of clinical improvement following the final infusion [2] | AUC(0-inf) [3, 10] | AUC(0-t) [3, 10] | Cmax [3, 10] | half-life [3, 10] | AUC0-inf/dose [3, 11] | AUC0-t/dose [3, 11] | Cmax/dose [3, 11] | time post injection at which ketamine was undetectable in plasma ([3]; free ketamine SC, FIG. 1) | patients in whom the therapeutic response was maintained ([4]; for a week after a single intravenous infusion) | patients with >50% decrease in Hamilton Depression Rating Scale (HDRS) score ([4]; one day after a single intravenous infusion, 17 patients) | time to relapse after the final intravenous infusion [5] | patients showing improvement of mood symptoms [6] | t1/2 [7] | half-life [8] | oral bioavailability [9]
1 | CN1[C@@H]2C[C@@H](OC(=O)[C@H](CO)c3ccccc3)C[C@H]1[C@@H]1O[C@@H]12 [Free Scopolamine, scopolamine hydrobromide trihydrate] | 3 | five | more than 2 weeks | – | – | – | – | – | – | – | – | – | – | – | – | – | – | –
2 | CNC1(c2ccccc2Cl)CCCCC1=O (stereo not drawn) [Free Ketamine, ketamine hydrochloride] | – | – | – | 314 ng·h/mL | 305 ng·h/mL | 190 ng/mL | 46.2 min | 62.9 | 61.0 | 38.0 | 4 h | 35% | 71% | ≤ 19 days | approximately 30% | 37.8 min | 78 min | 17%
